Reference: ChEMBL document CHEMBL4680222, “Sensitive fluorogenic substrates for sirtuin deacylase inhibitor discovery” (Eur J Med Chem, 2020)
Blank lines part the entries; values can stand above or below the compound they belong to.

Experiments:
[1] = molecular target: T1, NAD-dependent protein deacylase sirtuin-5, mitochondrial (Homo sapiens, UniProt Q9NXA8); test: Inhibition of human N-terminal His-tagged SIRT5 (34 to 302 residues) expressed in Escherichia coli using Ac-His-Phe-Ser-Lys(Su)-AMC as substrate preincubated for 10 mins followed by substrate addition and measured after 30 mins in presence of NAD+ by fluorescence assay
T1 sequence (Q9NXA8 whole entry, the tested form may be a part): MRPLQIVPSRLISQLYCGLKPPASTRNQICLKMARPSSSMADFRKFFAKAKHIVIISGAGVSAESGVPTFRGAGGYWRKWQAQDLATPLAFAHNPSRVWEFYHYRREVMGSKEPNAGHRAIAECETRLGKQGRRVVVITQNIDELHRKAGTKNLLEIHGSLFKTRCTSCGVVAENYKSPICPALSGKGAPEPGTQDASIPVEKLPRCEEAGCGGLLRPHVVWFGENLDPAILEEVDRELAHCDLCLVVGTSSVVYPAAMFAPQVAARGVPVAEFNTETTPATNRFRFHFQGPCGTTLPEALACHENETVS

[2] = molecular target: T1, NAD-dependent protein deacylase sirtuin-5, mitochondrial; test: Inhibition of human N-terminal His-tagged SIRT5 (34 to 302 residues) expressed in Escherichia coli using Ac-Tyr-Lys-Leu-Lys(Ac)-AMC as substrate preincubated for 10 mins followed by substrate addition and measured after 30 mins in presence of NAD+ by fluorescence assay
[3] = molecular target: T1, NAD-dependent protein deacylase sirtuin-5, mitochondrial; test: Inhibition of human N-terminal His-tagged SIRT5 (34 to 302 residues) expressed in Escherichia coli using Ac-Leu-Gly-Ser-Lys(Su)-AMC as substrate preincubated for 10 mins followed by substrate addition and measured after 30 mins in presence of NAD+ by fluorescence assay
[4] = molecular target: T2, NAD-dependent protein deacetylase sirtuin-1 (Homo sapiens, UniProt Q96EB6); test: Inhibition of human N-terminal His-tagged SIRT1 (183 to 664 residues) expressed in Escherichia coli using Ac-Arg-Leu-Ile-Lys(Ac)-AMC as substrate preincubated for 10 mins followed by substrate addition and measured after 30 mins in presence of NAD+ by fluorescence assay
T2 sequence (Q96EB6 whole entry): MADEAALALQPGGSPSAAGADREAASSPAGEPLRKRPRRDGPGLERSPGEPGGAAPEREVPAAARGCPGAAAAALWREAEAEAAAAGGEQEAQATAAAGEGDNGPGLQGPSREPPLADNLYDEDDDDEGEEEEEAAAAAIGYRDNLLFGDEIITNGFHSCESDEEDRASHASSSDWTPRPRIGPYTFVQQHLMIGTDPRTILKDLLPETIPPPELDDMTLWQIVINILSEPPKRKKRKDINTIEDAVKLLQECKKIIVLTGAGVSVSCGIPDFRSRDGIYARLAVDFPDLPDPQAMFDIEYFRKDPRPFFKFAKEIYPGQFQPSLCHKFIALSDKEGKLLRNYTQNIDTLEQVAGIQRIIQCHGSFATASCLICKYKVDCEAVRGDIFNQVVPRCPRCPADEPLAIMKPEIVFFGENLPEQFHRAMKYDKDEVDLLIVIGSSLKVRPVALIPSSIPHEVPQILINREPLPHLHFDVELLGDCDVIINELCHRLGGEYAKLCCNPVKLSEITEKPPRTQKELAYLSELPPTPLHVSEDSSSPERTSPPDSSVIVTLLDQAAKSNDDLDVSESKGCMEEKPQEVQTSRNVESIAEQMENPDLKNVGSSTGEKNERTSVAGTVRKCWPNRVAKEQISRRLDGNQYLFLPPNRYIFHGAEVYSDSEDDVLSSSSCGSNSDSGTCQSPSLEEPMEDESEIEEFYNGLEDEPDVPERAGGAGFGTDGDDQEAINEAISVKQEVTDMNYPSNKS

[5] = molecular target: T2, NAD-dependent protein deacetylase sirtuin-1; test: Inhibition of human N-terminal His-tagged SIRT1 (183 to 664 residues) expressed in Escherichia coli using Ac-Tyr-Lys-Leu-Lys(Ac)-AMC as substrate preincubated for 10 mins followed by substrate addition and measured after 30 mins in presence of NAD+ by fluorescence assay
[6] = molecular target: T3, NAD-dependent protein deacetylase sirtuin-2 (Homo sapiens, UniProt Q8IXJ6); test: Inhibition of human N-terminal His-tagged SIRT2 (56 to 356 residues) expressed in Escherichia coli using Ac-Ser-Ser-Ile-Lys(De)-AMC as substrate preincubated for 10 mins followed by substrate addition and measured after 30 mins in presence of NAD+ by fluorescence assay
T3 sequence (Q8IXJ6 whole entry): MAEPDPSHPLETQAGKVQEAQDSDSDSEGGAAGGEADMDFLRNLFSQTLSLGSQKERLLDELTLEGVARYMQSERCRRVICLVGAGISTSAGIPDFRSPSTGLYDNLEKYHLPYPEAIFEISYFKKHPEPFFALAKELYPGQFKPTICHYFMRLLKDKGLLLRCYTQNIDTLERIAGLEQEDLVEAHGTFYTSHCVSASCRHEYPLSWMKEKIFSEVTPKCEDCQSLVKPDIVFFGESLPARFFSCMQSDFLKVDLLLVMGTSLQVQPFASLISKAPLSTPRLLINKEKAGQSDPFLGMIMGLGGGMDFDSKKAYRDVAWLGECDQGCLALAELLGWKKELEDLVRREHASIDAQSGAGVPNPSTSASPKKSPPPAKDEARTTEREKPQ

[7] = molecular target: T3, NAD-dependent protein deacetylase sirtuin-2; test: Inhibition of human N-terminal His-tagged SIRT2 (56 to 356 residues) expressed in Escherichia coli using Ac-Arg-Leu-Ile-Lys(Ac)-AMC as substrate preincubated for 10 mins followed by substrate addition and measured after 30 mins in presence of NAD+ by fluorescence assay

IC50 [1]: 6.6 µM
IC50 [2]: 21.9 µM
IC50 [3]: 6.1 µM
Compound: CC(C)c1ccccc1Cc1cc(C(=O)Nc2ccc(S(=O)(=O)c3ccccc3C(C)(C)C)cc2)c(O)c(O)c1O

IC50 [4]: 261 µM
IC50 [5]: 146 µM
Compound: c1cncc(-c2c[nH]nn2)c1

IC50 [2]: > 200 µM
IC50 [3]: > 200 µM
Compound: NC(=O)C1CCCc2c1[nH]c1ccc(Cl)cc21 (centres undefined)

IC50 [6]: 23.3 µM
IC50 [7]: 2.2 µM
Compound: Cc1ccc(C(=O)Nc2ccc(S(=O)(=O)O)c3cc(S(=O)(=O)O)cc(S(=O)(=O)O)c23)cc1NC(=O)c1cccc(NC(=O)Nc2cccc(C(=O)Nc3cc(C(=O)Nc4ccc(S(=O)(=O)O)c5cc(S(=O)(=O)O)cc(S(=O)(=O)O)c45)ccc3C)c2)c1 [SURAMIN]
